# Data published in ChEMBL document CHEMBL4732171 (J Med Chem, 2021).
# Activity calls are given as the source filed them. No cut-off for these calls is given here.
# Columns and labels:
# [1] = biological target: Carbonic anhydrase 9 (Homo sapiens) (UniProt Q16790); conditions: T47D, dose 50.0 nM
# [2] = biological target: Carbonic anhydrase 9 (Homo sapiens) (UniProt Q16790); conditions: UFH-001, dose 50.0 nM
# Carbonic anhydrase 3 = Carbonic anhydrase 3 (Homo sapiens, UniProt P07451)
# [3] = biological target: Carbonic anhydrase 2 (Homo sapiens) (UniProt P00918); test: Binding affinity to human full length CAH2 expressed in Escherichia coli BL21 (DE3) assessed as binding concentration causing thermal stabilization by Sypro-Orange dye based DSF assay
# Chain of Carbonic anhydrase 3 (P07451 whole entry): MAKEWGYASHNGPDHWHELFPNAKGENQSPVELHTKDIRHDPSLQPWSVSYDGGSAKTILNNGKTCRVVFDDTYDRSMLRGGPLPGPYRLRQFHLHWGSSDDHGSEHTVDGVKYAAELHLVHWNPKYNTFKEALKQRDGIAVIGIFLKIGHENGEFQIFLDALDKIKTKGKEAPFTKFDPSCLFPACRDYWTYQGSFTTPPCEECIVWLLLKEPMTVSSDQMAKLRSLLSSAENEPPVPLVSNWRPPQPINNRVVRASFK
inhibition [1],inhibition [2],SMILES,Ki (Carbonic anhydrase 3),Activity [3]
Active,Active,CCOc1ccc2nc(S(N)(=O)=O)sc2c1,–,–
–,–,NS(=O)(=O)c1ccc(N2CCN(c3ccc(F)cc3F)C2=O)cc1,> 10 µM,0.1 mM
